The test system of data set [1] is Mus musculus. Put plainly: Antipsychotic activity in ip dosed mouse administered 15 mins prior to testing by SmartCube automated system based method. Format: functional. As to conditions: for minimal effective dose: Mus musculus, ip, read-out: MED.
Data set [2] is described as follows: Chemical stability of the compound in 0.01 M HCl at pH 2 after 96 hrs by HPLC analysis. Format: physicochemical. Particulars: buffer, pH 2, 96 h.
Data set [3] can be described thus: Chemical stability of the compound in 20 mM NH4Ac buffer solution at pH 7.1 after 96 hrs by HPLC analysis. Particulars: pH 7.1, 96 h. Format: physicochemical.
Data set [4] has as its system Liver microsome. The data set can be described thus: Drug metabolism in human liver microsomes assessed as formation of 4-(3,4-dimethylthiophen-2-yl)pyrimidine at 3 uM in presence of NADPH by LC-MS/MS analysis. The format is ADME. (In general: Liver microsomes are a subcellular fraction often used to study metabolism.)
Data set [5] in a line: Drug metabolism in mouse liver microsomes assessed as formation of 4-(3,4-dimethylthiophen-2-yl)pyrimidine at 3 uM in presence of NADPH by LC-MS/MS analysis. Format: ADME.
The test system of data set [6] is Mus musculus. The data set can be described thus: Antipsychotic activity in mouse at 30 mg/kg, ip administered 15 mins prior to testing by SmartCube automated system based method relative to standard compound. The format is functional.
In data set [7] the target is D(2) dopamine receptor (Homo sapiens) (UniProt P14416). Put plainly: Displacement of [3H]methyl-spiperone from human recombinant D2 receptor expressed in HEK293 cells at 30 uM after 60 mins by scintillation counting analysis. Format: cell-based. On the technique in general: Loss of bound radioactivity is the signal in a displacement assay; it reports binding, not function.
Chain of D(2) dopamine receptor (Homo sapiens) (P14416 whole entry): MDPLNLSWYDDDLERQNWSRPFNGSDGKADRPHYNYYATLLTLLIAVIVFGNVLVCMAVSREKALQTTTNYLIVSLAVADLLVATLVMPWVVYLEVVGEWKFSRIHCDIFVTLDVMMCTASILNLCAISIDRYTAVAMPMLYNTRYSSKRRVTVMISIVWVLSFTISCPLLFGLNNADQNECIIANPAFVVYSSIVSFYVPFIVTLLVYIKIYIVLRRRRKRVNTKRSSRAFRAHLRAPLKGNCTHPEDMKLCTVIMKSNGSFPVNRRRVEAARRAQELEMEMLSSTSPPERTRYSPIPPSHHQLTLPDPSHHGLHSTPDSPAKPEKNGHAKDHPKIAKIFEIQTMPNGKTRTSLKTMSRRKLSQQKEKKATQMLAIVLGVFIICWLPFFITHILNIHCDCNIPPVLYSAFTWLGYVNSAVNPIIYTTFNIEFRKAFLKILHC

Data set [8] shares this target. Put plainly: Displacement of [3H]methyl-spiperone from human recombinant D2 receptor expressed in HEK293 cells at 10 uM after 60 mins by scintillation counting analysis. The format is cell-based.
The next data set has as its target CYP1A (Homo sapiens, UniProt P04798+P05177). The data set can be described thus: Inhibition of CYP1A in human liver microsomes assessed as reduction in ethoxyresorufin o-deethylation by fluorescence assay. Particulars: probe ethoxyresorufin (O-deethylation).
In another data set the target is Cytochrome P450 2C19 (Homo sapiens, UniProt P33261). Put plainly: Inhibition of CYP2C19 in human liver microsomes assessed as reduction in S-mephenytoin 4-hydroxylation by LC-MS/MS analysis. The format is ADME.
Chain of Cytochrome P450 2C19 (P33261 whole entry): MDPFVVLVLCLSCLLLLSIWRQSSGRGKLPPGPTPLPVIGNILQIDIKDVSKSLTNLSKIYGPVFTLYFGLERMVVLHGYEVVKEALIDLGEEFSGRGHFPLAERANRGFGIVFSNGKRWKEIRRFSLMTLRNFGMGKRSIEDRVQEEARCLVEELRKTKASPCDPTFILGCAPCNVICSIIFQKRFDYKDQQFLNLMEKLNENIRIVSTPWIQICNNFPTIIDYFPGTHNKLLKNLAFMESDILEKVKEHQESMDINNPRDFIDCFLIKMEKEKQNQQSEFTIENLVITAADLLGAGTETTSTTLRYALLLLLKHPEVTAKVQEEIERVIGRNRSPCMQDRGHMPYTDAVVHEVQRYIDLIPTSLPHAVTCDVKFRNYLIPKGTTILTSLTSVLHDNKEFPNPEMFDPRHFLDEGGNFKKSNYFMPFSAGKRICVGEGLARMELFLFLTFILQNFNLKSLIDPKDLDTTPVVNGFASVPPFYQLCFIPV
For a further data set, the target named is Cytochrome P450 2C9 (Homo sapiens, UniProt P11712). Put plainly: Inhibition of CYP2C9 in human liver microsomes assessed as reduction in tolbutamide 4-hydroxylation by LC-MS/MS analysis. The format is ADME.
Chain of Cytochrome P450 2C9 (P11712 whole entry): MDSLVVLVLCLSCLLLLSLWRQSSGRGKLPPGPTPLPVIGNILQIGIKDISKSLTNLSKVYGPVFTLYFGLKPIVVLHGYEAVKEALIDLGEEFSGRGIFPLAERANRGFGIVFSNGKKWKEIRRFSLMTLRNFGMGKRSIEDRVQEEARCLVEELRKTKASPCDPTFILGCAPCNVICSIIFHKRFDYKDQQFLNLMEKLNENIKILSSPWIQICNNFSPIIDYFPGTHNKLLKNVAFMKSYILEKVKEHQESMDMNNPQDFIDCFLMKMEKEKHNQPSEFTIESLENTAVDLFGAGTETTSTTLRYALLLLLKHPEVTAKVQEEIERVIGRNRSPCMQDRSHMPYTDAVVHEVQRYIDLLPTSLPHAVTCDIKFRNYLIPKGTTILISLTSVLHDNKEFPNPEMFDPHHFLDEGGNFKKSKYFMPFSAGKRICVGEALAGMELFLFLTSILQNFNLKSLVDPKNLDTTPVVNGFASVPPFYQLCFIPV
A further data set addresses Cytochrome P450 2D6 (Homo sapiens, UniProt P10635). Put plainly: Inhibition of CYP2D6 in human liver microsomes assessed as reduction in dextromethorphan o-demethylation by LC-MS/MS analysis. Format: ADME.
For the next data set, the target named is Cytochrome P450 3A4 (Homo sapiens, UniProt P08684). The data set can be described thus: Inhibition of CYP3A4 in human liver microsomes assessed as reduction in midazolam 1-hydroxylation/testosterone 6beta-hydroxylation by LC-MS/MS analysis. The format is ADME.
Chain of Cytochrome P450 3A4 (P08684 whole entry): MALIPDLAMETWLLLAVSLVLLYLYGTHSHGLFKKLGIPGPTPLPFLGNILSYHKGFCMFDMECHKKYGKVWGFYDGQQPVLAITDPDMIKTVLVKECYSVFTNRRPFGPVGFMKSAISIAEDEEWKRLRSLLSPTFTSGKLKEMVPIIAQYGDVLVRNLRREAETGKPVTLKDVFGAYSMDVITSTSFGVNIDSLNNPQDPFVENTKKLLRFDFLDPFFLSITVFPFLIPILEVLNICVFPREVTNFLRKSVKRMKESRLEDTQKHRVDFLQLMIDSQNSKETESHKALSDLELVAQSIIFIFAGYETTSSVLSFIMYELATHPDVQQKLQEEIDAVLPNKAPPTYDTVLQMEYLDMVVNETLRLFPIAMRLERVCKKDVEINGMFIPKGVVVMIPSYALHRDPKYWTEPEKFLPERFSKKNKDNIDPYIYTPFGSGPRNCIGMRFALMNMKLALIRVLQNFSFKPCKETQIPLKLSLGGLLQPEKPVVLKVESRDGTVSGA
A short description of data set [9]: Half life in human liver microsomes at 3 uM in presence of NADPH by LC-MS/MS analysis. Format: ADME.
Data set [10] can be described thus: Half life in mouse liver microsomes at 3 uM in presence of NADPH by LC-MS/MS analysis. Format: ADME.
Data set [11] in a line: Half life in rat liver microsomes at 3 uM in presence of NADPH by LC-MS/MS analysis. The format is ADME.
Data set [12] relates to Mus musculus. The data set can be described thus: Antipsychotic activity in mouse at 10 mg/kg, ip administered 15 mins prior to testing by SmartCube automated system based method relative to standard compound. The format is functional, organism-based.
For data set [13], the target named is Adrenergic receptor alpha-1 (Rattus norvegicus) (UniProt P15823+P23944+P43140). Put plainly: Displacement of [3H]prazosin from rat cerebral cortex adrenergic alpha1 receptor at 10 uM after 60 mins by scintillation counting analysis. Format: tissue-based.
Data set [14] concerns the target Adrenergic receptor alpha-2 (Rattus norvegicus) (UniProt P22086+P19328+P22909). Put plainly: Displacement of [3H]RX 821002 from rat cerebral cortex adrenergic alpha2 receptor at 10 uM after 60 mins by scintillation counting analysis. The format is tissue-based.
Data set [15] addresses D(1A) dopamine receptor (Homo sapiens) (UniProt P21728). Put plainly: Displacement of [3H]SCH 23390 from human recombinant D1 receptor expressed in CHO cells at 10 uM after 60 mins by scintillation counting analysis. Format: cell-based.
Data set [16] deals with T1, 5-hydroxytryptamine receptor 2A (Homo sapiens, UniProt P28223). The data set can be described thus: Displacement of [3H]ketanserin from human recombinant 5-HT2A receptor expressed in HEK293 cells at 10 uM after 60 mins by scintillation counting analysis. The format is cell-based.
T1 sequence (P28223 whole entry): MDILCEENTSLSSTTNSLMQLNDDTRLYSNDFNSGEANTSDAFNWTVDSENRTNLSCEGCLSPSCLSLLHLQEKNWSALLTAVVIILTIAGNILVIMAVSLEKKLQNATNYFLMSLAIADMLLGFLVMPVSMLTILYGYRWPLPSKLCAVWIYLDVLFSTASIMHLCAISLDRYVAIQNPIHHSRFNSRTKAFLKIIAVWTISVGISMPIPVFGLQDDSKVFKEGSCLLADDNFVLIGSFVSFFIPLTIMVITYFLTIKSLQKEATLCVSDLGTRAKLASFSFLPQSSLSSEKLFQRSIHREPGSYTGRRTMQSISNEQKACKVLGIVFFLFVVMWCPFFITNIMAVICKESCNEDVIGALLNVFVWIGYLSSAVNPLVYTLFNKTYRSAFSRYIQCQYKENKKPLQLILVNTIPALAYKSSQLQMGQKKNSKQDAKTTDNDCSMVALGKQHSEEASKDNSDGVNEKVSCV
Data set [17] concerns the target 5-hydroxytryptamine receptor 2B (Homo sapiens) (UniProt P41595). Put plainly: Displacement of [3H]mesulergine from human recombinant 5-HT2B receptor expressed in CHO cells at 10 uM after 60 mins by scintillation counting analysis. Format: cell-based.
For data set [18], the target named is 5-hydroxytryptamine receptor 3A (Homo sapiens) (UniProt P46098). Put plainly: Displacement of [3H]BRL 43694 from human recombinant 5-HT3 receptor expressed in CHO cells at 10 uM after 120 mins by scintillation counting analysis. Format: cell-based.
Chain of 5-hydroxytryptamine receptor 3A (Homo sapiens) (P46098 whole entry): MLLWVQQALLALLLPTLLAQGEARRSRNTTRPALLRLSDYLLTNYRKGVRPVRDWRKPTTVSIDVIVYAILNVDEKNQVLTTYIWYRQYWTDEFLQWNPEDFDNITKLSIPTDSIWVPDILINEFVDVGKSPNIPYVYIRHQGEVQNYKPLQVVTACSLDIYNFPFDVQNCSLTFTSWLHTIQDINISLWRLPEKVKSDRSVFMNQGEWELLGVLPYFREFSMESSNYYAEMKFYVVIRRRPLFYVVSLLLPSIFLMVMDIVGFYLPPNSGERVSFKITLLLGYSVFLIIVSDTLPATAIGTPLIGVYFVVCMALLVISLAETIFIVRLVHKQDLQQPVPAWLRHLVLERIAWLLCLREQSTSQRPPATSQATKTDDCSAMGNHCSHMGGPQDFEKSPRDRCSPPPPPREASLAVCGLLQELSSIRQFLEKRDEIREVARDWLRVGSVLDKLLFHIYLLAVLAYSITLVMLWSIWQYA
In data set [19] the target is 5-hydroxytryptamine receptor 6 (Homo sapiens) (UniProt P50406). The data set can be described thus: Displacement of [3H]LSD from human recombinant 5-HT6 receptor expressed in CHO cells at 10 uM after 120 mins by scintillation counting analysis. The format is cell-based.
For data set [20], the target named is 5-hydroxytryptamine receptor 7 (Homo sapiens) (UniProt P34969). Put plainly: Displacement of [3H]LSD from human recombinant 5-HT7 receptor expressed in CHO cells at 10 uM after 120 mins by scintillation counting analysis. The format is cell-based.
Chain of 5-hydroxytryptamine receptor 7 (Homo sapiens) (P34969 whole entry): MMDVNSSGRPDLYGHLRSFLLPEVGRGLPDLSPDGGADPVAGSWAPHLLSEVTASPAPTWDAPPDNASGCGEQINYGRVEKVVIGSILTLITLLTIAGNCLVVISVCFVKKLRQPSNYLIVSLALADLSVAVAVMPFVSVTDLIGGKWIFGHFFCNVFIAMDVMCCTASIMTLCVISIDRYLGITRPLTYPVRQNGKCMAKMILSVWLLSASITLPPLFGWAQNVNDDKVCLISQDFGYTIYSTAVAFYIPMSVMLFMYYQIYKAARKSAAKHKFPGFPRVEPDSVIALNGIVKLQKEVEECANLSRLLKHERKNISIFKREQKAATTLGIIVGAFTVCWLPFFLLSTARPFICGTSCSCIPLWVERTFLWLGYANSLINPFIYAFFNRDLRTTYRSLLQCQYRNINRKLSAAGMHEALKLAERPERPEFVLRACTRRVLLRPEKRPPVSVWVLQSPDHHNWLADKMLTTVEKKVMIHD
Data set [21] deals with Histamine H1 receptor (Homo sapiens) (UniProt P35367). Put plainly: Displacement of [3H]pyrilamine from human recombinant H1 receptor expressed in HEK293 cells at 10 uM after 60 mins by scintillation counting analysis. Format: cell-based.
In data set [22] the target is Sodium-dependent serotonin transporter (Homo sapiens) (UniProt P31645). Put plainly: Displacement of [3H]imipramine from human recombinant 5-HT transporter expressed in CHO cells at 10 uM after 60 mins by scintillation counting analysis. Format: cell-based.
In data set [23] the target is Sodium-dependent dopamine transporter (Homo sapiens) (UniProt Q01959). The data set can be described thus: Displacement of [3H]BTCP from human recombinant dopamine transporter expressed in CHO cells at 10 uM after 120 mins by scintillation counting analysis. The format is cell-based.
Data set [24] concerns the target Sodium-dependent noradrenaline transporter (Homo sapiens) (UniProt P23975). Put plainly: Displacement of [3H]nisoxetine from human recombinant norepinephrine transporter expressed in CHO cells at 10 uM after 120 mins by scintillation counting analysis. The format is cell-based.
Data set [25] has as its target T1, 5-hydroxytryptamine receptor 2A. The data set can be described thus: Antagonist activity at 5HT2A (unknown origin).
Data set [26] deals with Voltage-gated inwardly rectifying potassium channel KCNH2 (Homo sapiens, UniProt Q12809). The data set can be described thus: Inhibition of human ERG. As to conditions: human.
A short description of data set [27]: Solubility of the compound at pH 7.4. The format is physicochemical. Particulars: buffer.
Data set [28] can be described thus: Fraction unbound in human plasma at 5 uM by LC-MS/MS based equilibrium dialysis method. Format: ADME, cell-free.
Data set [29] is described as follows: Fraction unbound in mouse plasma at 5 uM by LC-MS/MS based equilibrium dialysis method. Format: ADME, cell-free. (In equilibrium dialysis only unbound substance equilibrates across the membrane.)
Data set [30] concerns Mus musculus. The data set can be described thus: Antipsychotic-like activity in C57Bl/6J mouse model of schizophrenia assessed as reversal of phencyclidine-induced locomotor activity at 3 to 30 mg/kg, po dosed 30 mins before administration of PCP measured for 60 mins by open field test. The format is functional, organism-based.
For data set [31], the system named is Mus musculus. Put plainly: Effect on basal locomotor activity in C57Bl/6J mouse at 10 to 30 mg/kg, po. Format: ADME, organism-based. As to conditions: in vivo.
Data set [32] deals with Mus musculus. Put plainly: Antipsychotic activity in C57Bl/6J mouse model of schizophrenia assessed as increase in prepulse inhibition of acoustic startle at 3 to 10 mg/kg, po administered 30 mins prior to testing relative to vehicle-treated control. The format is functional, organism-based.
Data set [33] has as its system Mus musculus. The data set can be described thus: Effect on basal locomotor activity in C57Bl/6J mouse at 3 mg/kg, po. The format is ADME, organism-based. Particulars: in vivo.
For data set [34], the system named is Liver microsome. Put plainly: Drug metabolism in human liver microsomes assessed as formation of 4-(2-methylbenzo[b]thiophen-3-yl)pyrimidineat 3 uM in presence of NADPH by LC-MS/MS analysis. Format: ADME.
A short description of data set [35]: Drug metabolism in mouse liver microsomes assessed as formation of 4-(2-methylbenzo[b]thiophen-3-yl)pyrimidineat 3 uM in presence of NADPH by LC-MS/MS analysis. The format is ADME.

The source made the active and inactive calls. No cut-off for these calls is given here.

Chain of 5-hydroxytryptamine receptor 2B (Homo sapiens) (P41595 whole entry): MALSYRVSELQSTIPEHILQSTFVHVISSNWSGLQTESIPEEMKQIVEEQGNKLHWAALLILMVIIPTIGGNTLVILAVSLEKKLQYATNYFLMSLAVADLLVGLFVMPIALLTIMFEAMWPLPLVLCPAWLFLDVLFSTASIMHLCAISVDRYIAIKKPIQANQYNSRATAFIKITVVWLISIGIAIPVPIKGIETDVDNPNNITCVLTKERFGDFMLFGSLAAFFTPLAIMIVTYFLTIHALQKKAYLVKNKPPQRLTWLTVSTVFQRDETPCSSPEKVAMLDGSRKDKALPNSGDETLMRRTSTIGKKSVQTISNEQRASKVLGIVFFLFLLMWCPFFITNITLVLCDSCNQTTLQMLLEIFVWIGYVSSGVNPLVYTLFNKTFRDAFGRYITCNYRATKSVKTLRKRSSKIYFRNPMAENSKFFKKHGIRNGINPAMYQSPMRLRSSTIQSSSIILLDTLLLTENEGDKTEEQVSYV
Chain of Cytochrome P450 2D6 (P10635 whole entry): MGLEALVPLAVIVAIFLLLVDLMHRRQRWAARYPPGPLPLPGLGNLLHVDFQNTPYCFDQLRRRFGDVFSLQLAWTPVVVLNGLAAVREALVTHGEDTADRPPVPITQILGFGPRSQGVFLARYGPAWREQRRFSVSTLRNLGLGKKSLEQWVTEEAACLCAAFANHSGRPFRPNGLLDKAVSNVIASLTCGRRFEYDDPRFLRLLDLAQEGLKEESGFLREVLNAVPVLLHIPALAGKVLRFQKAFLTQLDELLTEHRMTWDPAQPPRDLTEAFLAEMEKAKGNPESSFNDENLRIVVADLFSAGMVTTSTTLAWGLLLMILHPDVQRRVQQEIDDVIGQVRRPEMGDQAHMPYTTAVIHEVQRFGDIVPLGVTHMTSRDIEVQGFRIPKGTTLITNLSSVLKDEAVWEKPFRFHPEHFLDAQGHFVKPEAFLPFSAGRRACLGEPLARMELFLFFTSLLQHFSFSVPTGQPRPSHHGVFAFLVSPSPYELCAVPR
Chain of Sodium-dependent noradrenaline transporter (Homo sapiens) (P23975 whole entry): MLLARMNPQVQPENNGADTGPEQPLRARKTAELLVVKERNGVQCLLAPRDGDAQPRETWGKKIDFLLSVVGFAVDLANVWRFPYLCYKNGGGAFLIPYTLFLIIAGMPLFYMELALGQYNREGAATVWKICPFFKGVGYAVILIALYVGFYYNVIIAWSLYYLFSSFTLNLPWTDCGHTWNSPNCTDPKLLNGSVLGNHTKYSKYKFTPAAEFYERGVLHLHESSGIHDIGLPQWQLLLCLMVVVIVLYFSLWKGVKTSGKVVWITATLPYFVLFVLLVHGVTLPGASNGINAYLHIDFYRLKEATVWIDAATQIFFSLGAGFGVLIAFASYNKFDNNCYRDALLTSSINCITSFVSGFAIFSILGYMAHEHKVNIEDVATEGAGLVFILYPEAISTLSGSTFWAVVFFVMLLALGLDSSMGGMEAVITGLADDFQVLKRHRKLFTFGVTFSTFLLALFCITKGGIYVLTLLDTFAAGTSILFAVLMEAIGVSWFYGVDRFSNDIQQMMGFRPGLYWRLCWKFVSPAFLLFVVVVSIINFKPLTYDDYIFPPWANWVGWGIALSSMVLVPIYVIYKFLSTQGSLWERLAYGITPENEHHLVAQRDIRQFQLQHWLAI

For the molecule `Cl.Fc1sc2ccccc2c1C1NC=NC=C1Cl` (stereo unspecified), the minimal effective dose with Mus musculus [1] amounted to 30 mg/kg.

For the molecule `Cc1sc2c(F)cccc2c1C1C=CN=CN1.Cl` (stereo unspecified), in the data set on Mus musculus [1], the minimal effective dose was found to be 10 mg/kg.

The molecule `Cc1csc(C2C=CN=CN2)c1C.Cl` (stereo in doubt; 12a) yielded an MED in the data set with Mus musculus [1] of 3 mg/kg. In addition, the Stability entry in data set [2] is given as “Stable”; in [3] it was “Unstable”. The Drug metabolism result (in the data set with Liver microsome [4]; in [5]) was “metabolite_notdetected” throughout.

With `Cc1csc(C2C=CN=CN2)c1C` (stereo unspecified), the result in the data set on Mus musculus [6] was Active. Further, the inhibition in data set [7] was determined as 18%.

As to `Cc1sc2ccccc2c1C1C=CN=CN1.Cl` (stereo unspecified), in the data set with Mus musculus [1], the minimal effective dose was determined as 3 mg/kg.

Consider `Cc1c(C2C=CN=CN2)sc2ccccc12` (stereo unspecified), for which the outcome in the data set with Mus musculus [6] was Active.

Turning to `Cc1sc2ccccc2c1C1NC(N)=NC=C1Cl.Cl` (stereo unspecified), the minimal effective dose with Mus musculus [1] is 30 mg/kg.

Regarding `CC1=NC=CC(c2c(C)sc3ccccc23)N1.Cl` (stereo unspecified), the minimal effective dose in the data set with Mus musculus [1] worked out at 30 mg/kg.

Regarding `Cc1c(F)sc(C2C=CN=CN2)c1C.Cl` (stereo unspecified), the minimal effective dose in the data set on Mus musculus [1] was 10 mg/kg.

Regarding `Cc1sc2ccccc2c1[C@@H]1C=CN=CN1`, the result in the data set with Mus musculus [6], with Mus musculus [12], with Mus musculus [30] and with Mus musculus [32] was Active. Moreover, the inhibition in data set [8] amounted to 0%; in [13], 88%; in [14], 97%; in data set [15], 77%; in [16] it was 99%; in data set [17] it was 81%. The inhibition in data set [18] amounted to 64%; in data set [19], 61%; in [20], 94%; in data set [21], 86%; in data set [22], 94%; in data set [23] it was 78%. In addition, the inhibition in data set [24] was 51%. Besides, the half-inhibitory concentration (IC50) on CYP1A was 6.9 µM; at Cytochrome P450 2C19 it was 25 µM; on Cytochrome P450 2C9, 6.9 µM; on Cytochrome P450 2D6, 3.1 µM; on Cytochrome P450 3A4, 11 µM; in [25], 0.356 µM. Also, in data set [26], the IC50 was over 25 µM. The results for the half-life at 3 µM in data set [9], in [10] and in [11] were 2.28 h, 4.03 h and 0.483 h, respectively. The Stability entry in [2] and in data set [3] was “Stable” in each case. Further, the solubility in data set [27] was over 100 µg/mL. Besides, the fraction unbound at 5 µM turned out to be 0.3 in [28] and 0.18 in data set [29]. The figures for the Activity result with Mus musculus [31] and in the data set on Mus musculus [33] were “Toxic” and “Non-toxic”, respectively. The Drug metabolism entry (in the data set with Liver microsome [34]; in data set [35]) was “metabolite_notdetected” throughout.

On to `Cc1sc2ccc(Cl)cc2c1C1C=CN=CN1.Cl` (stereo unspecified), for which, in the data set on Mus musculus [1], the minimal effective dose was determined as 3 mg/kg.

On to `Fc1c(C2NC=Nc3ccccc32)sc2ccccc12` (stereo unspecified), for which the result in the data set with Mus musculus [6] was Active.

For the molecule `Cc1sc2cccc(F)c2c1C1C=CN=CN1.Cl` (stereo unspecified), the minimal effective dose in the data set on Mus musculus [1] worked out at 3 mg/kg.

For `Cc1sc2c(c1C1C=CN=CN1)CCCC2.Cl` (stereo unspecified), the minimal effective dose in the data set on Mus musculus [1] was 10 mg/kg.

For `Cc1sc(C2C=CN=CN2)c(C)c1C.Cl` (stereo unspecified), in the data set on Mus musculus [1], the minimal effective dose amounted to 30 mg/kg.

Regarding `Cc1sc2c(Cl)cccc2c1C1C=CN=CN1.Cl` (stereo unspecified), the minimal effective dose in the data set with Mus musculus [1] came out at 30 mg/kg.

As a reminder, the inhibition is the relative decrease from the control value, in per cent. One may read the IC50 as the midpoint of a concentration-inhibition curve. In general, half-life refers to the time in which the quantity being followed falls by half. The solubility is how much of the substance goes into solution per volume. Low readings indicate little dissolved substance, high ones much dissolved substance. By fraction unbound is commonly meant the share of the substance not bound to proteins or other matrix.
